Experimental data taken from US20210308034A1, “PREBIOTIC COMPOSITIONS AND METHODS FOR MAINTAINING A HEALTHY SKIN MICROBIOTA” (KIMBERLY-CLARK WORLDWIDE, INC., priority 2018, published 2021).

How the values were obtained:
Assay type in all cases: cell-based
[1] = tested on: Pseudomonas aeruginosa (ATCC 9027); details: Pathogenic; carbon microarray plate, OD 600 nm, 36 hr, 33° C.; positive = more than 0.05 OD units above zero; blank cell = not utilized
Source text: (§1) After creating desired ratios of various commensal skin bacteria in a healthy skin microbiome, 188 different carbohydrate sources were screened as the next step in determining potential prospects for skin microbiota balancing agents. The screening process was set up to determine which carbohydrate sources promoted commensal and/or pathogenic bacteria as well as to obtain individual and combinations of carbohydrate sources that could serve as microbiota balancing agents that can support or maintain the healthy proportions of commensal skin bacteria of Corynebacterium, Staphylococcus, and Micrococcus. The screening was conducted utilizing Biolog phenotype microarray plates (Hayward, Calif.). Table 1 provides a coded list of the commensal and pathogenic skin bacteria that the carbohydrates were screened against.
(§2) The Bacteria Codes B, D, E, I, and J are commensal bacteria and are shaded in Table 2 for references purposes. The bacteria codes were each placed in a carbon microarray plate and screened through the Carbohydrate Screening Test Method, as described in the Test Methods section herein. If a particular bacteria code utilized a specific carbohydrate source as described in the Carbohydrate Screening Test Method, then the corresponding cell in Table 2 was marked with a Y (short for “Yes”).
(§3) The study employed 10 representative skin bacteria; Staphylococcus epidermidis ATCC 14990, Staphylococcus epidermidis M23864:W2, Staphylococcus aureus ATCC 6538, Staphylococcus aureus ATCC 25904 (Newman), Pseudomonas aeruginosa ATCC 9027, Micrococcus luteus ATCC […], Micrococcus luteus SK58, Klebsiella pneumoniae ATCC BAA-2146, Corynebacterium amycolatum SK46, and Corynebacterium minutissimum ATCC 23348. Cultures were started from freezer bead stocks by placing a single bead into 20 mL of tryptic soy broth (TSB) for all organisms except C. amycolatum SK46 and C. minutissimum ATCC 23348, which were placed into brain heart infusion (BHI) broth. Cultures were grown for about 24 hr at 37° C. except M. luteus ATCC 49732 and M. luteus SK58, which were grown at 30° C. A passage of the culture was made using a sterile swab and streaked onto two M9*2 agar plates to prepare the incubated culture for the phenotype microarray pate according to Table 4. Plates were incubated for about 24 hr at 37° C. except for M. luteus ATCC 49732 and M. luteus SK58, which were incubated at 30° C. for 24 hr.
(§4) All cultures were harvested and washed before inoculation into the carbon microarray plate (BiOLOG, Hayward Calif.), with Biolog Plates PM1 and PM2 each having a source definition of Carbon. The bacteria on the M9*2 agar was suspended via agitation with an inoculating loop in 1 mL of M9*1 media for collection in a 1.7 mL micro centrifuge tube, as noted in Table 4. The bacteria was suspended again in M9*1 media, agitated, and collected into the same 1.7 mL microcentrifuge tube used in the previous step. The tube was centrifuged for 5 minutes at 4,000×G, supernatant decanted, the pellet was resuspended in 1 mL of M9*1 media, and vortex. This washing process was repeated for a total of 4 times.
(§5) A tenfold dilution in M9*1 media was performed using 1 mL of the washed bacterial culture. Of the tenfold dilution 200 μL was placed in an untreated 96-well plate (Falcon, Pasadena Tx.) for an initial optical density (OD) reading at a wavelength of 600 nm. The OD was used to correlate to colony forming units (CFU) per milliliter by using linear regression lines for each organism.

[2] = tested on: Klebsiella pneumoniae (ATCC BAA-2146); details: Pathogenic; carbon microarray plate, OD 600 nm, 36 hr, 33° C.; positive = more than 0.05 OD units above zero; blank cell = not utilized
Source text: as §1
Table 2 provides the results of screening various carbohydrate sources against the commensal and pathogenic bacteria codes listed in Table 1. The Bacteria Codes B, D, E, I, and J are commensal bacteria and are shaded in Table 2 for references purposes. The bacteria codes were each placed in a carbon microarray plate and screened through the Carbohydrate Screening Test Method, as described in the Test Methods section herein. If a particular bacteria code utilized a specific carbohydrate source as described in the Carbohydrate Screening Test Method, then the corresponding cell in Table 2 was marked with a Y (short for “Yes”). […] Many of the carbohydrate sources were utilized by both commensal and pathogenic bacteria, and as such, would not provide an advantage for selective growth of the commensal bacteria. However, some of the carbohydrate sources were only used by commensal bacteria and were identified for further testing as described herein.
as §3, §4
as §5, with “organism. […]” for “organism.”

[3] = tested on: Micrococcus luteus (SK58); assay: Carbohydrate Screening Test Method (Biolog phenotype microarray), Bacteria Code E; details: Commensal; carbon microarray plate, OD 600 nm, 36 hr, 33° C.; positive = more than 0.05 OD units above zero; blank cell = not utilized
Source text: as §1, §2
(§6) To do so, the respective microarray data for the 79 carbohydrate sources was run through the GrowthRates 2.1 program to obtain growth parameters, such as growth rates and maximum yield data as described by the Belingham Research Institute, Hall, B. G., H. Acar and M. Barlow. 2014 Growth Rates Made Easy. Mol. Biol. Evol. 31:232-238 doi:10.1093/molbev/mst197. The max yield parameters generated were utilized to calculate ratios of tested commensal bacteria. The ratios calculated were compared back to the desired ratios identified above (Corynebacterium to Staphylococcus of 1.3, Corynebacterium to Micrococcus of 1.4, and Staphylococcus to Micrococcus of 1.1).
(§7) As an example of this methodology used to calculate the commensal bacteria ratios and the difference between the calculated ratios and the desired ratios, an example code from Table 3 will be described. […] The max yields were then used to calculate ratios the bacteria would reach in a co-culture.

[4] = tested on: Corynebacterium jeikum (ATCC 33033); assay: Carbohydrate Screening Test Method (Biolog phenotype microarray), Bacteria Code B
Description: as §1, with “The” for “After creating desired ratios of various commensal skin bacteria in a healthy skin microbiome, 188 different carbohydrate sources were screened as the next step in determining potential prospects for skin microbiota balancing agents. The”
as §2
as §6, with “2014 Growth Rates Made Easy.” left out, “31:232-238 doi:10.1093/molbev/mst197.” left out
as §7
A passage of the culture was made using a sterile swab and streaked onto two M9*2 agar plates to prepare the incubated culture for the phenotype microarray pate according to Table 4.
All cultures were harvested and washed before inoculation into the carbon microarray plate (BiOLOG, Hayward Calif.), with Biolog Plates PM1 and PM2 each having a source definition of Carbon. The bacteria on the M9*2 agar was suspended via agitation with an inoculating loop in 1 mL of M9*1 media for collection in a 1.7 mL micro centrifuge tube, as noted in Table 4.

[5] = Commensal, carbon microarray plate, OD 600 nm, 36 hr, 33° C., positive = more than 0.05 OD units above zero, blank cell = not utilized

## N[C@@H](Cc1c[nH]cn1)C(=O)O [L-Histidine]
[1]
  Carbohydrate Screening Results, Bacteria Code F: Y
[2]
  Carbohydrate Screening Results, Bacteria Code C: Y

## O[C@H]1[C@H](O)[C@@H](O)[C@H](O)[C@@H](O)[C@H]1O [m-Inositol]
[3]
  Carbohydrate Screening Results, Bacteria Code E: Y
[4]; [5]
  Carbohydrate Screening Results, Bacteria Code B: Y
[2]
  Carbohydrate Screening Results, Bacteria Code C: Y

## O=C(O)[C@H](O)[C@@H](O)C(=O)O [L-Tartaric Acid]
[1]
  Carbohydrate Screening Results, Bacteria Code F: Y
[2]
  Carbohydrate Screening Results, Bacteria Code C: Y

## COC1OC(CO)C(O)C(O)C1O [α-Methyl-D-Galactoside]
[3]
  Carbohydrate Screening Results, Bacteria Code E: Y
[4]; [5]
  Carbohydrate Screening Results, Bacteria Code B: Y
[2]
  Carbohydrate Screening Results, Bacteria Code C: Y

## CCCC(=O)O [Butyric Acid]
[1]
  Carbohydrate Screening Results, Bacteria Code F: Y

## O=C(O)[C@]1(O)C[C@@H](O)[C@@H](O)[C@H](O)C1 [Quinic Acid]
[1]
  Carbohydrate Screening Results, Bacteria Code F: Y
[2]
  Carbohydrate Screening Results, Bacteria Code C: Y

## Gentiobiose
[1]
  Carbohydrate Screening Results, Bacteria Code F: Y
[2]
  Carbohydrate Screening Results, Bacteria Code C: Y

## NCCc1ccc(O)cc1 [Tyramine]
[4]; [5]
  Carbohydrate Screening Results, Bacteria Code B: Y
[1]
  Carbohydrate Screening Results, Bacteria Code F: Y
[2]
  Carbohydrate Screening Results, Bacteria Code C: Y

## O=C[C@H](O)[C@@H](O)[C@@H](O)CO [L-Arabinose]
[1]
  Carbohydrate Screening Results, Bacteria Code F: Y
[2]
  Carbohydrate Screening Results, Bacteria Code C: Y

## C[C@H](O)[C@H](O)[C@@H](O)[C@@H](O)C=O [L-Rhamnose]
[3]
  Carbohydrate Screening Results, Bacteria Code E: Y
[4]; [5]
  Carbohydrate Screening Results, Bacteria Code B: Y
[2]
  Carbohydrate Screening Results, Bacteria Code C: Y

## O=P(O)(O)O[C@H]1O[C@H](CO)[C@@H](O)[C@H](O)[C@H]1O [D-Glucose-1-Phosphate]
[3]
  Carbohydrate Screening Results, Bacteria Code E: Y
[4]; [5]
  Carbohydrate Screening Results, Bacteria Code B: Y
[2]
  Carbohydrate Screening Results, Bacteria Code C: Y

## OC[C@@H](O)[C@@H](O[C@H]1O[C@H](CO)[C@@H](O)[C@H](O)[C@H]1O)[C@H](O)[C@@H](O)CO [Maltitol]
[1]
  Carbohydrate Screening Results, Bacteria Code F: Y
[2]
  Carbohydrate Screening Results, Bacteria Code C: Y

## O=C[C@H](O)[C@@H](O)[C@H](O)[C@H](O)C(=O)O [D-Glucuronic Acid]
[3]
  Carbohydrate Screening Results, Bacteria Code E: Y
[4]; [5]
  Carbohydrate Screening Results, Bacteria Code B: Y
[1]
  Carbohydrate Screening Results, Bacteria Code F: Y
[2]
  Carbohydrate Screening Results, Bacteria Code C: Y

## OC[C@@H](O)C(O)[C@H](O)CO [D-Arabitol]
[1]
  Carbohydrate Screening Results, Bacteria Code F: Y
[2]
  Carbohydrate Screening Results, Bacteria Code C: Y

## O=C1CC[C@@H](C(=O)O)N1 [L-Pyroglutamic Acid]
[1]
  Carbohydrate Screening Results, Bacteria Code F: Y

## CC(O)(CC(=O)O)C(=O)O (centres unmarked) [Citramalic Acid]
[1]
  Carbohydrate Screening Results, Bacteria Code F: Y

## N[C@@H](CCC(=O)O)C(=O)O [L-Glutamic Acid]
[4]; ATCC33033, 36 h
  Carbohydrate Screening Results, Bacteria Code B: Y
[1]
  Carbohydrate Screening Results, Bacteria Code F: Y

## NC(=O)C[C@H](N)C(=O)O [L-Asparagine]
[4]; [5]
  Carbohydrate Screening Results, Bacteria Code B: Y
[1]
  Carbohydrate Screening Results, Bacteria Code F: Y

## CCCCCC(=O)O [Caproic Acid]
[1]
  Carbohydrate Screening Results, Bacteria Code F: Y

## C[C@H](O)[C@@H](O)[C@@H](O)[C@H](O)C=O [L-Fucose]
[3]
  Carbohydrate Screening Results, Bacteria Code E: Y
[4]; [5]
  Carbohydrate Screening Results, Bacteria Code B: Y
[2]
  Carbohydrate Screening Results, Bacteria Code C: Y

## O=C(CO)[C@H](O)[C@H](O)[C@H](O)CO [D-Psicose]
[3]
  Carbohydrate Screening Results, Bacteria Code E: Y
[4]; [5]
  Carbohydrate Screening Results, Bacteria Code B: Y
[1]
  Carbohydrate Screening Results, Bacteria Code F: Y
[2]
  Carbohydrate Screening Results, Bacteria Code C: Y

## C=C(CC(=O)O)C(=O)O [Itaconic Acid]
[1]
  Carbohydrate Screening Results, Bacteria Code F: Y

## O=C[C@H](O)[C@@H](O)[C@H](O)CO [D-Xylose]
[1]
  Carbohydrate Screening Results, Bacteria Code F: Y
[2]
  Carbohydrate Screening Results, Bacteria Code C: Y

## N[C@H]1C(O)O[C@H](CO)[C@@H](O)[C@@H]1O (stereo partly drawn) [D-Glucosamine]
[1]
  Carbohydrate Screening Results, Bacteria Code F: Y
[2]
  Carbohydrate Screening Results, Bacteria Code C: Y

## CCCCCCCCCC(=O)O [Capric Acid]
[1]
  Carbohydrate Screening Results, Bacteria Code F: Y

## O=C1O[C@@H]([C@H](O)CO)[C@H](O)[C@H]1O [D-Galactonic Acid-γ-Lactone]
[1]
  Carbohydrate Screening Results, Bacteria Code F: Y
[2]
  Carbohydrate Screening Results, Bacteria Code C: Y

## N[C@@H](CC(=O)O)C(=O)O [L-Aspartic Acid]
[4]; [5]
  Carbohydrate Screening Results, Bacteria Code B: Y
[2]
  Carbohydrate Screening Results, Bacteria Code C: Y

## OC[C@@H](O)[C@@H](O)[C@@H](O)CO [Adonitol]
[3]
  Carbohydrate Screening Results, Bacteria Code E: Y
[4]; [5]
  Carbohydrate Screening Results, Bacteria Code B: Y
[1]
  Carbohydrate Screening Results, Bacteria Code F: Y
[2]
  Carbohydrate Screening Results, Bacteria Code C: Y

## OC[C@@H](O)[C@@H](O)[C@H](O)[C@@H](O)CO [D-Sorbitol]
[3]
  Carbohydrate Screening Results, Bacteria Code E: Y
[1]
  Carbohydrate Screening Results, Bacteria Code F: Y
[2]
  Carbohydrate Screening Results, Bacteria Code C: Y

## OC[C@H]1O[C@H](OCC2O[C@@H](O)[C@H](O)[C@@H](O)[C@@H]2O)[C@H](O)[C@@H](O)[C@H]1O (stereo partly drawn) [D-Melibiose]
[3]
  Carbohydrate Screening Results, Bacteria Code E: Y
[4]; [5]
  Carbohydrate Screening Results, Bacteria Code B: Y
[1]
  Carbohydrate Screening Results, Bacteria Code F: Y
[2]
  Carbohydrate Screening Results, Bacteria Code C: Y

## CO[C@@H]1O[C@H](CO)[C@@H](O)[C@H](O)[C@H]1O [β-Methyl-D-Galactoside]
[1]
  Carbohydrate Screening Results, Bacteria Code F: Y
[2]
  Carbohydrate Screening Results, Bacteria Code C: Y
